The values that follow come from patent publication US8501734B2, “Medical intervention in haematological cancers” (Oncotyrol-Center for Personalized Cancer Medicine GmbH …, priority 2008, dated 2013).

Counter-ions that a name gives are not always drawn.

The conditions of series [1]: in vivo; cited from earlier work.
For series [2] the following is noted: cited from earlier work.
In series [3] the test system is Rh (rhabdomyosarcoma) cell lines. The note with it: read-out: IC50 growth suppression; cited from earlier work.
A further series concerns OPM2 cells. Put plainly: Annexin V/PI apoptosis assay (FACS), OPM2 cells. It is filed as cell-based. The arrangement: apoptosis induction: unit not given here. To be noted: OPM2 cells; for apoptosis induction, combination: Akt inhibitor + Imiquimod 20 μg/ml; for apoptosis induction, single agent: Imiquimod 20 μg/ml or Akt inhibitor alone. The procedure:
(§1) After treatment adherent cells were trypsinized (as described before), and resuspended in corresponding full medium. Suspension cells or trypsinized adherent cells, supernatant and washing solution (1×PBS from washing before trypsinization) were pooled and then spun down (300 g for 3 min) washed in 2 ml and resuspended in 1000 of annexin V binding buffer and mixed with 2 μg/ml annexin V-Allophycocyanin (APC) (BD-Pharmingen, San Diego, Calif., USA) and 50 ng/ml of propidium iodide (PI; Sigma Aldrich). At least 10.000 cells were measured per sample using a Becton Dickinson FACSCalibur flow Cytometer (San Jose, Calif., USA). Percentage of Annexin V negative and PI negative cells were depicted in the figures. For the analysis of the pro-apoptotic activity of Imiquimod® in primary MM cells and non-malignant BMMCs, 5×10^5 cells BMMCs cells were treated with or without 40 μg/ml Imiquimod® for the indicated time periods. Cells were then harvested and washed twice with PBS. Detection of apoptotic cells was performed using the annexin V/PI assay according to manufacturers' instruction. Briefly, BMMCs were stained with a mixture of annexin V/FITC (Alexis Coorp., Laeufelfingen, Switzerland), propidium iodide (Sigma), anti-CD38-PE and anti-CD45-PC5 for 15 min at room temperature and immediately analyzed by flow cytometry. The percentages of viable cells (i.e. cells negative for annexin V/FITC and PI) within the MM (CD38^posCD45^low/absent) and non-MM fraction (CD38^neg/CD45^pos) were determined by flow cytometry.
Cells were cultured as described before and, treated with 40 μg/ml Imiquimod® or Gardiquimod® for 24 h, and apoptosis was assayed by AnnexinV/PI staining and FACS analysis.
(§2) Adherent cells were grown in 24-well plates to confluence and treated with 40 μg/ml Imiquimod® for 24 h. Cells were then trypsinized, suspended in full medium, stained for AnnexinV/PI and apoptosis was measured as described before. Suspension cells (250.000) were treated with 40 μg/ml Imiquimod® for 24 h, stained for Annexin/PI and apoptosis was measured as described above (Annexin V/Propidium Iodide apoptosis Assay).
(§3) OPM-2 and U266 cells (2.5×10^5 in 500 μl) were treated with either Imiquimod® alone (10 μg/500 μl), various inhibitors/drugs alone or with the combination of Imiquimod® and inhibitors for 24 or 48 h. In the controls the solvent of the drug has been added in appropriate amounts. Cells were then AnnexinV/PI stained and apoptosis measured as described before.

Another series relates to Akt phosphorylation. The series is described as follows: Akt phosphorylation by Western blot with phospho-Akt antibody in OPM2 cells. In kind it is cell-based. The procedure:
Cells were lysed in lysis-IP-Buffer supplemented with protease inhibitors and sodium orthovanadate. 10 μg of lysate were separated by SDS-PAGE (10% polyacrylamide) and transferred to methanol activated Hypond-P PVDF-membranes (Amersham, Freiburg, Germany) by semi-dry blotting. Membranes were blocked in a 3% bovine serum albumin solution or 5% non fat dry milk solution in phosphate buffered saline (PBS) with 0.1% Tween 20 (PBT). Primary antibodies were applied in blocking solution for 1 h at room temperature or over night at 4° C. Membranes were washed in PBT and incubated with corresponding secondary antibodies in 5% non fat dry milk in PBT for 1 h at room temperature. Cells were washed with PBT, incubated with ECL solution and exposed in a Fluorchem 5500 (Biozym, Oldendorf, Germany).
The efficiency of the inhibition of Akt phosphorylation was monitored by Western blotting with antibodies against phospho-Akt. Antibody for actin served as a loading control (FIG. 7B).
Background: In western blotting, separated proteins are transferred to a membrane and probed.

Another series has as its system PI 3-K, PDK1, or SGK1. The note with it: cited from earlier work.
The next series relates to Akt. The note with it: cited from earlier work.
Another series deals with U266 cells. Put plainly: Annexin V/PI apoptosis assay (FACS), U266 cells. Note: key: 0 for no; + for low; ++: + indicates the range of apoptosis induction; +++: + indicates the range of apoptosis induction; ++++ for very strong apoptosis induction. It is filed as cell-based. The arrangement: apoptosis induction: unit not given here. The procedure:
as §1, §2, §3

The subject of series [4] is multiple myeloma cell lines. Put plainly: Annexin V/PI apoptosis assay, multiple myeloma cell line panel. To be noted: OPM2, LP-1, RPMI, U266, 24 h. It is filed as cell-based. The protocol: as §1, §2
Series [5] concerns PH domain-lacking Akts, PKA, PKC, and SGK. To be noted: concentrations as high as 50 μM; cited from earlier work.
Series [6] concerns peripheral blood mononuclear cells (PBMCs). Put plainly: Annexin V/PI apoptosis assay, PBMCs from healthy donors. In kind it is cell-based, human. To be noted: PBMCs from healthy donors, 48 h, 5 μM Akti1/2 + 20 μg/ml Imiquimod. The procedure: PBMCs were prepared using separation via Ficoll density gradient centrifugation (Biochrom AG, Berlin, Germany) according to the protocol of the manufacturer.
as §1, §2

For series [7], the system named is Raji, Daudi, Ramos, Jurkat, C7H2 cell lines. The series is described as follows: Annexin V/PI apoptosis assay, non-multiple myeloma suspension cell lines. It is filed as cell-based. To be noted: Raji, Ramos, Jurkat, 24 h. The procedure:
as §1, §2

The mark [8] stands for this setting: 24 h, Imi 20 μg/ml + drug 100 nM.
Setting [9] is: 48 h, Imi 20 μg/ml + drug 100 nM.
[10] abbreviates: 24 h, Imi 20 μg/ml + drug 10 nM.
Setting [11] is: 48 h, Imi 20 μg/ml + drug 10 nM.

In the case of `CCn1c(-c2nonc2N)nc2c(C#CC(C)(C)O)ncc(OC[C@H]3CCCNC3)c21` [GSK690693], in series [1], the “reason for withdrawal and termination of clinical phase I studies” value was “hyperglycaemia”.

As a reminder, the IC50 is the concentration needed to halve the response being measured. For `CCN(CC)CCCCN1c2ccccc2Oc2ccc(Cl)cc21` [AktX, 10-(4′-(N-diethylamino)butyl)-2-chlorophenoxazine, HCl], in [2], the solubility result is on record as “soluble in H2O”. Further, the IC50 in series [3] is 2 to 5 µM. In the series with OPM2 cells (24 h), the “apoptosis induction, combination” value is “nearly all cells died” and the “apoptosis induction, single agent” value is “some apoptosis”. Moreover, the “phosphorylation of Akt” value in the series with Akt phosphorylation is on record as “inhibited the phosphorylation of Akt”. In addition, in the series on PI 3-K, PDK1, or SGK1, the “effect on PI 3-K, PDK1, or SGK1” value was “minimal effect”. Moreover, the “complete inhibition of Akt phosphorylation and in vitro kinase activity” value in the series on Akt is less than 5 µM.

Consider `Cn1c2ccccc2c2c3c(c4c5ccccc5n(CCC#N)c4c21)CNC3=O` [Gö 6976], for which the apoptosis induction result in the series with OPM2 cells (setting [8]) was “+”; with OPM2 cells (24 h, Imi 20 μg/ml + drug 1 μM), “++”; with OPM2 cells (24 h, Imi 20 μg/ml + drug 5 μM), “++”; with OPM2 cells (24 h, drug alone 100 nM), 0; in the series with OPM2 cells (24 h, drug alone 1 μM), 0; with OPM2 cells (24 h, drug alone 5 μM), 0. Besides, the apoptosis induction entry with OPM2 cells (setting [9]) is “++”; in the series with OPM2 cells (48 h, Imi 20 μg/ml + drug 1 μM) it was “+++”; in the series with OPM2 cells (48 h, Imi 20 μg/ml + drug 5 μM) it was “+++”; in the series with OPM2 cells (48 h, drug alone 100 nM) it was 0; in the series with OPM2 cells (48 h, drug alone 1 μM) it was 0; in the series with OPM2 cells (48 h, drug alone 5 μM) it was “+”. Also, the apoptosis induction entry in the series with U266 cells (setting [8]) is recorded as “+”; in the series on U266 cells (24 h, Imi 20 μg/ml + drug 1 μM), “++”; with U266 cells (24 h, Imi 20 μg/ml + drug 5 μM), “++”; in the series with U266 cells (24 h, drug alone 100 nM) it was 0; with U266 cells (24 h, drug alone 1 μM) it was 0; in the series with U266 cells (24 h, drug alone 5 μM), 0. In addition, the apoptosis induction entry with U266 cells (setting [9]) is “++”; with U266 cells (48 h, Imi 20 μg/ml + drug 1 μM), “+++”; in the series on U266 cells (48 h, Imi 20 μg/ml + drug 5 μM), “+++”; in the series with U266 cells (48 h, drug alone 100 nM) it was 0; in the series on U266 cells (48 h, drug alone 1 μM), 0; in the series on U266 cells (48 h, drug alone 5 μM), “+”.

Consider `C[C@@H]1C[C@H]2[C@@H]3CCC4=CC(=O)C=C[C@]4(C)[C@@]3(F)[C@@H](O)C[C@]2(C)[C@@]1(O)C(=O)CO` [Dex., Dexamethasone], for which the apoptosis induction entry is on record as “+” in the series on OPM2 cells (setting [10]); “+” in the series on OPM2 cells (setting [8]); “+” in the series with OPM2 cells (24 h, Imi 20 μg/ml + drug 1 μM); 0 with OPM2 cells (24 h, drug alone 10 nM); 0 in the series on OPM2 cells (24 h, drug alone 100 nM); 0 in the series on OPM2 cells (24 h, drug alone 1 μM). In addition, the apoptosis induction result is reported as “++” with OPM2 cells (setting [11]); “+++” in the series on OPM2 cells (setting [9]); “+++” with OPM2 cells (48 h, Imi 20 μg/ml + drug 1 μM); 0 with OPM2 cells (48 h, drug alone 10 nM); 0 in the series on OPM2 cells (48 h, drug alone 100 nM); 0 in the series with OPM2 cells (48 h, drug alone 1 μM). Moreover, the apoptosis induction entry in the series with U266 cells (setting [10]) is on record as “+”; in the series on U266 cells (setting [8]) it was “+”; in the series on U266 cells (24 h, Imi 20 μg/ml + drug 1 μM) it was “+”; in the series with U266 cells (24 h, drug alone 10 nM), 0; in the series on U266 cells (24 h, drug alone 100 nM), 0; with U266 cells (24 h, drug alone 1 μM), 0. The apoptosis induction entry with U266 cells (setting [11]) is “+”; in the series with U266 cells (setting [9]), “+”; with U266 cells (48 h, Imi 20 μg/ml + drug 1 μM), “+”; in the series on U266 cells (48 h, drug alone 10 nM), 0; in the series on U266 cells (48 h, drug alone 100 nM), 0; with U266 cells (48 h, drug alone 1 μM), 0.

Take `O=c1[nH]c2ccccc2n1C1CCN(Cc2ccc(-c3nc4cc5nc[nH]c5cc4nc3-c3ccccc3)cc2)CC1` [Akti1/2, 1,3-Dihydro-1-(1-((4-(6-phenyl-1H-imidazo[4,5-g]quinoxalin-7-yl)phenyl)methyl)-4-piperidinyl)-2H-benzimidazol-2-one]: the solubility entry in [2] is reported as “soluble in DMSO”. For the same molecule, the “apoptosis induction, combination” value in [4] (Akti1/2 5 or 10 μM + Imiquimod 20 μg/ml) is “super-additive effect”; in the series with OPM2 cells (24 h), “nearly all cells died”; in series [7] (Daudi, C7H2, 5 μM Akti1/2 + 20 μg/ml Imiquimod), “affected all cell lines to some extent”. For the same molecule, the “apoptosis induction, single agent” value (in series [4] (Imiquimod 20 μg/ml or Akti1/2 5 or 10 μM alone); with OPM2 cells (24 h)) was “some apoptosis” in each case. For the same molecule, the “phosphorylation of Akt” value in the series on Akt phosphorylation is “inhibited the phosphorylation of Akt”. Moreover, the inhibitory effect entry in [5] was “does not exhibit any inhibitory effect”. The “sensitivity of PBMCs (general toxicity of the combination)” value in [6] was “as sensitive as U266 cells”. Moreover, in [7] (C7H2 (exception Daudi), 5 μM alone), the apoptosis induction entry is “only a mild effect”.
